Measurements published in patent US12064480B2, “Immunigenic alpha-branched trehalose-diesters” (GLAXOSMITHKLINE BIOLOGICALS SA, priority 2018, dated 2024).

How the values were obtained:
mouse Raw cell line = assay: Cytokine production (TNFα) from mouse Raw cells; assay type: cell-based; settings: for TNFα efficacy/peak levels relative to the other reference compounds / TNFα potency in mouse cell line compared to human cells / TNFα potency relative to sTDCM: FIG. 4A; for TNFα potency in mouse cell line compared to human cells: mouse Raw cells vs human cells
Description: The compounds were screened for their ability to induce TNFα from the mouse Raw cell line. An aim of this study was to determine if species specific differences in responses to compounds may be observed.

human PBMCs = assay: Cytokine production from human PBMCs (Luminex multiplex panel); assay type: cell-based; settings: human cells
Experimental: TDM (trehalose-6,6′-dimycolate) was obtained from Sigma. TDB (6,6′-dibehenoyl-α,α′-trehalose) was obtained from Avanti Polar Lipids. MMG (glycerol monomycolate) was prepared according to the procedure of Andersen et. al. sTDCM (synthetic trehalose dicorynomycolate) was obtained from Sigma-Aldrich (Catalog Number S3452).
PBMCs were obtained via leukapheresis from normal donors (AllCells, Berkeley, CA). Upon receipt PBMCs were repeatedly washed in 1×PBS and cryopreserved in freezing media (50% RPMI, 40% FCS, 10% DMSO) for future use. For assay, cells were immediately thawed into RPMI media, 10% heat inactivated FBS, 1× penicillin/streptomycin/glutamine (complete media), washed once and resuspended to the desired cell concentration in complete media. Cells were treated with the indicated compound concentrations by addition to plates containing serial dilution of the stock compound in diluent (50% isopropanol/50% isooctane). Compounds were applied, 20 ul final volume, to the bottom of a tissue culture plate and solvent was allowed to fully evaporate (i.e. plate coating) before cell addition.
Supernatants were harvested from treated cells 18-24 h post cell application. Supernatants were analyzed using a Luminex multiplex panel for analytes TNFα, IL-1β, IL-6, IFNγ, IL-12p70 and IL-23 per the manufacturer's instructions.

Compound	fold less potent than sTDCM (mouse Raw cell line; mouse Raw cells, TNFα)	TNFα induction (activity) (mouse Raw cell line; mouse Raw cells, FIG. 4)	TNFα efficacy/peak levels relative to the other reference compounds (mouse Raw cell line; mouse Raw cells)	MMG/sTDCM potency difference (human PBMCs) [fold]	TNFα potency in mouse cell line compared to human cells (mouse Raw cell line)	TNFα potency relative to sTDCM (mouse Raw cell line; mouse Raw cells)
glycerol monomycolate [MMG]	over 100 fold	some activity	equivalent levels	~10	–	–
CCCCCCCCCCCCCCCCCCCCCC(=O)OC[C@H]1O[C@H](O[C@H]2O[C@H](COC(=O)CCCCCCCCCCCCCCCCCCCCC)[C@@H](O)[C@H](O)[C@H]2O)[C@H](O)[C@@H](O)[C@@H]1O [TDB, 6,6′-dibehenoyl-α,α′-trehalose]	–	–	higher efficacy/peak levels	–	more potent in the mouse cell line as compared to human cells	equivalent potency
trehalose-6,6′-dimycolate [TDM]	–	–	higher efficacy/peak levels	–	more potent in the mouse cell line as compared to human cells	equivalent potency
